This assay deals with T1, recombinant human 15-PGDH (Homo sapiens, UniProt P15428).
T1 construct: purchased R&D Systems
T1 sequence (P15428 1-266): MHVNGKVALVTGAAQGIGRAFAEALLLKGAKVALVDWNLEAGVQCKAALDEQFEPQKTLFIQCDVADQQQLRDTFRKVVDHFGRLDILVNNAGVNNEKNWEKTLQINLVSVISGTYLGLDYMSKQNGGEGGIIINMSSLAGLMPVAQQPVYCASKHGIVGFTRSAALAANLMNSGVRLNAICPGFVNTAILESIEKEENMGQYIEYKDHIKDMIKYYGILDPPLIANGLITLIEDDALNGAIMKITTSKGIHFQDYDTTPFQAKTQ
As to the kind of experiment: 15-PGDH enzyme inhibition test. Format: biochemical. Particulars: 4 nM recombinant human 15-PGDH, 30 μM PGE2, 1 mM NAD+, 60 minutes after starting the reaction. A digest of the protocol: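 4 nM recombinant human enzyme pre-incubated with compound 12 min at room temperature in 50 mM Tris-HCl pH 8.0 with 0.01% Tween 20 and 0.01% bovine gamma globulin. Reaction started with 30 μM PGE2 and 1 mM NAD+, read after 60 min by fluorescence (ex 340/em 440 nm). IC50 from concentration-response curve.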

Read-outs that look alike come from different tables or passages of the source. Where only a bound is given, the exact number is not on record here.

`CCN(C)C(=O)c1cnc2c(c1)OCCN2c1ccn2c(=O)n(C)nc2c1` [Example 8-55]: the IC50 (usually the concentration needed to halve the response being measured) (read-out: IC50 Value) was less than 10 nM.
Regarding `Cn1nc2cc(N3CCOc4cc(C(=O)N5[C@@H]6CCC[C@H]5CC6)cnc43)ccn2c1=O` [Example 8-56], the half-inhibitory concentration (IC50) (read-out: IC50 Value) was less than 10 nM.
On the same count and under the same terms, as for `Cn1nc2cc(N3CCCOc4cc(C(=O)N5CCC5)cnc43)ccn2c1=O` [Example 8-57], the figure is less than 10 nM; as for `Cn1nc2cc(N3CCCOc4cc(C(=O)N5CCCC5)cnc43)ccn2c1=O` [Example 8-58], less than 10 nM.
Regarding `Cn1nc2cc(N3CCCOc4cc(C(=O)N5CCCCCC5)cnc43)ccn2c1=O` [Example 8-59], the concentration for half-maximal inhibition (IC50) (read-out: IC50 Value) is less than 10 nM.
As for `C[C@@H]1CCCN(C(=O)c2cnc3c(c2)OCCCN3c2ccn3c(=O)n(C)nc3c2)C1` [Example 8-60], the 50% inhibitory concentration (IC50) (read-out: IC50 Value) was less than 10 nM.
In the case of `C[C@H]1CCCN(C(=O)c2cnc3c(c2)OCCCN3c2ccn3c(=O)n(C)nc3c2)C1` [Example 8-61], the half-maximal inhibitory concentration (IC50) (read-out: IC50 Value) is less than 10 nM.
Consider `Cn1nc2cc(N3CCCOc4cc(C(=O)N5CCC[C@@H](F)C5)cnc43)ccn2c1=O` [Example 8-62], for which the IC50 (read-out: IC50 Value) is less than 10 nM.
With `Cn1nc2cc(N3CCCOc4cc(C(=O)N5CCC[C@H](F)C5)cnc43)ccn2c1=O` [Example 8-63], the IC50 (read-out: IC50 Value) is less than 10 nM.
For `Cn1nc2cc(N3CCCOc4cc(C(=O)N5CCC(F)(F)CC5)cnc43)ccn2c1=O` [Example 8-64], the IC50 (read-out: IC50 Value) is less than 10 nM.
Turning to `Cn1nc2cc(N3CCOc4cc(C(=O)N5CCC[C@H](CF)C5)cnc43)ccn2c1=O` [Example 8-65], the half-maximal inhibitory concentration (IC50) (read-out: IC50 Value) is less than 10 nM.
On the same count and under the same terms, the value for `Cn1nc2cc(N3CCOc4cc(C(=O)N5CCC[C@@H](CF)C5)cnc43)ccn2c1=O` [Example 8-66] was less than 10 nM.
The same measure, in the same setting: the value for `Cn1nc2cc(N3CCOc4cc(C(=O)N5CCCC6(CCC6)C5)cnc43)ccn2c1=O` [Example 8-67] was less than 10 nM.
Take `CCN1Cc2cc(N3CCCc4cc(C(=O)N5CCC5)cnc43)ccc2C1=O` [Example 8-68]: the IC50 (read-out: IC50 Value) was less than 10 nM.
For the molecule `CCN1Cc2cc(N3CCCc4cc(C(=O)N5CCCC5)cnc43)ccc2C1=O` [Example 8-69], the concentration for half-maximal inhibition (IC50) (read-out: IC50 Value) was less than 10 nM.
`CCN1Cc2cc(N3CCCc4cc(C(=O)N5CCCCCC5)cnc43)ccc2C1=O` [Example 8-70]: under “read-out: IC50 Value”, the IC50 was less than 10 nM.
Consider `CCN1Cc2cc(N3CCCc4cc(C(=O)N5CCCCCCC5)cnc43)ccc2C1=O` [Example 8-71], for which the IC50 (read-out: IC50 Value) is less than 10 nM.
As for `CCN1Cc2cc(N3CCCc4cc(C(=O)N5CCOCC5)cnc43)ccc2C1=O` [Example 8-72], the IC50 (read-out: IC50 Value) is less than 10 nM.
For `CCN1Cc2cc(N3CCCc4cc(C(=O)N5CCN(C)CC5)cnc43)ccc2C1=O` [Example 8-73], the IC50 (read-out: IC50 Value) was less than 10 nM.
With `CCN1Cc2cc(N3CCCc4cc(C(=O)N5CCN(C(C)=O)CC5)cnc43)ccc2C1=O` [Example 8-74], the concentration for half-maximal inhibition (IC50) (read-out: IC50 Value) is greater than 100 nM.
On to `CCN1Cc2cc(N3CCCc4cc(C(=O)N5CC=CCC5)cnc43)ccc2C1=O` [Example 8-75], for which the 50% inhibitory concentration (IC50) (read-out: IC50 Value) was less than 10 nM.
Consider `CCN1Cc2cc(N3CCCc4cc(C(=O)N5CCc6ccccc6C5)cnc43)ccc2C1=O` [Example 8-76], for which the concentration for half-maximal inhibition (IC50) (read-out: IC50 Value) is less than 10 nM.
Consider `CCN1Cc2cc(N3CCCc4cc(C(=O)N5Cc6ccccc6C5)cnc43)ccc2C1=O` [Example 8-77], for which the concentration for half-maximal inhibition (IC50) (read-out: IC50 Value) was less than 10 nM.
With `CCN1Cc2cc(N3CCCc4cc(C(=O)N5CCCC[C@H]5C)cnc43)ccc2C1=O` [Example 8-78], the IC50 (read-out: IC50 Value) was less than 10 nM.
In the case of `CCN1Cc2cc(N3CCCc4cc(C(=O)N5CCCC[C@@H]5C)cnc43)ccc2C1=O` [Example 8-79], the half-maximal inhibitory concentration (IC50) (read-out: IC50 Value) is less than 10 nM.
In the case of `CCN1Cc2cc(N3CCCc4cc(C(=O)N5CCC(C)CC5)cnc43)ccc2C1=O` [Example 8-80], under “read-out: IC50 Value”, the 50% inhibitory concentration (IC50) was less than 10 nM.
Consider `CCN1Cc2cc(N3CCCc4cc(C(=O)N5CCCC(C)(F)C5)cnc43)ccc2C1=O` (stereo not drawn) [Example 8-81], for which, for the setting “read-out: IC50 Value”, the IC50 is less than 10 nM.
On to `CCN1Cc2cc(N3CCCc4cc(C(=O)N5CCC(F)(F)C(C)C5)cnc43)ccc2C1=O` (stereo not drawn) [Example 8-82], for which, for the setting “read-out: IC50 Value”, the half-inhibitory concentration (IC50) is less than 10 nM.
As for `CCN1Cc2cc(N3CCCc4cc(C(=O)N5CCC[C@@H](F)C5)cnc43)ccc2C1=O` [Example 8-83], where the note is “read-out: IC50 Value”, the IC50 was less than 10 nM.
Consider `CCN1Cc2cc(N3CCCc4cc(C(=O)N5CCC[C@H](F)C5)cnc43)ccc2C1=O` [Example 8-84], for which, for the setting “read-out: IC50 Value”, the IC50 is less than 10 nM.
Consider `CCN1Cc2cc(N3CCCc4cc(C(=O)N5CCCC(F)(F)C5)cnc43)ccc2C1=O` [Example 8-85], for which the IC50 (read-out: IC50 Value) was less than 10 nM.
For `CCN1Cc2cc(N3CCCc4cc(C(=O)N5CCC(F)CC5)cnc43)ccc2C1=O` [Example 8-86], the half-inhibitory concentration (IC50) (read-out: IC50 Value) is less than 10 nM.
`CCN1Cc2cc(N3CCCc4cc(C(=O)N5CCC[C@@H](C(F)(F)F)C5)cnc43)ccc2C1=O` [Example 8-87]: the half-maximal inhibitory concentration (IC50) (read-out: IC50 Value) was less than 10 nM.
For the molecule `CCN1Cc2cc(N3CCCc4cc(C(=O)N5CCC[C@H](C(F)(F)F)C5)cnc43)ccc2C1=O` [Example 8-88], the IC50 (read-out: IC50 Value) was less than 10 nM.
Regarding `CCN1Cc2cc(N3CCCc4cc(C(=O)N5CCC[C@@H](C)C5)cnc43)ccc2C1=O` [Example 8-89], where the note is “read-out: IC50 Value”, the IC50 is less than 10 nM.
With `CCN1Cc2cc(N3CCCc4cc(C(=O)N5CCC[C@H](C)C5)cnc43)ccc2C1=O` [Example 8-90], the IC50 (read-out: IC50 Value) was less than 10 nM.
`CCN1Cc2cc(N3CCCc4cc(C(=O)N5CCC[C@@H](CF)C5)cnc43)ccc2C1=O` [Example 8-91]: under “read-out: IC50 Value”, the IC50 is less than 10 nM.
For `CCN1Cc2cc(N3CCCc4cc(C(=O)N5CCC[C@H](CF)C5)cnc43)ccc2C1=O` [Example 8-92], the concentration for half-maximal inhibition (IC50) (read-out: IC50 Value) was less than 10 nM.
Regarding `CCN1Cc2cc(N3CCCc4cc(C(=O)N5CCC[C@@H](C(F)F)C5)cnc43)ccc2C1=O` [Example 8-93], the 50% inhibitory concentration (IC50) (read-out: IC50 Value) is less than 10 nM.
Regarding `CCN1Cc2cc(N3CCCc4cc(C(=O)N5CCC[C@H](C(F)F)C5)cnc43)ccc2C1=O` [Example 8-94], for the setting “read-out: IC50 Value”, the IC50 is less than 10 nM.
As for `Cn1nc2cc(N3CCOc4cc(C(=O)N5CCCC6(C5)CC(F)(F)C6)cnc43)ccn2c1=O` [Example 8-95], the IC50 (read-out: IC50 Value) fell in the range of 10 to 100 nM.
For the molecule `O=C(c1cnc2c(c1)CCCN2c1ccc2c(=O)[nH]cnc2c1)N1CCC(F)(F)CC1` [Example 8-96], where the note is “read-out: IC50 Value”, the IC50 was less than 10 nM.
`Cn1nc2cc(N3CCOc4cc(C(=O)N5CC6CCC6C5)cnc43)ccn2c1=O` (stereo not drawn) [Example 8-97]: the half-inhibitory concentration (IC50) (read-out: IC50 Value) is less than 10 nM.
The same measure, in the same setting: as for `Cn1nc2cc(N3CCOc4cc(C(=O)N5C[C@H]6CCC[C@H]6C5)cnc43)ccn2c1=O` [Example 8-98], the figure is less than 10 nM; as for `Cn1nc2cc(N3CCOc4cc(C(=O)N5CC6CC6C5)cnc43)ccn2c1=O` (stereo not drawn) [Example 8-99], less than 10 nM; as for `Cn1nc2cc(N3CCOc4cc(C(=O)N5CCC(C)(C)C5)cnc43)ccn2c1=O` [Example 8-100], less than 10 nM.
For `Cn1nc2cc(N3CCOc4cc(C(=O)N5CCC(C(F)(F)F)CC5)cnc43)ccn2c1=O` [Example 8-101], the IC50 (read-out: IC50 Value) is less than 10 nM.
Still for that read-out and setting: as for `Cn1nc2cc(N3CCOc4cc(C(=O)N5CCCCCC5)cnc43)ccn2c1=O` [Example 8-102], the figure is less than 10 nM.
Regarding `Cn1nc2cc(N3CCOc4cc(C(=O)N5Cc6ccccc6C5)cnc43)ccn2c1=O` [Example 8-103], under “read-out: IC50 Value”, the IC50 was less than 10 nM.
Still for that read-out and setting: as for `Cn1nc2cc(N3CCOc4cc(C(=O)N5CCc6ccccc65)cnc43)ccn2c1=O` [Example 8-104], the figure is 10 to 100 nM; as for `COCCNC(=O)c1cnc2c(c1)OCCN2c1ccn2c(=O)n(C)nc2c1` [Example 8-105], less than 10 nM; as for `COCCN(C)C(=O)c1cnc2c(c1)OCCN2c1ccn2c(=O)n(C)nc2c1` [Example 8-106], less than 10 nM.
On to `COCCCNC(=O)c1cnc2c(c1)OCCN2c1ccn2c(=O)n(C)nc2c1` [Example 8-107], for which the 50% inhibitory concentration (IC50) (read-out: IC50 Value) was less than 10 nM.
As to `Cn1nc2cc(N3CCOc4cc(C(=O)N5C[C@H](O)C[C@H](O)C5)cnc43)ccn2c1=O` [Example 8-108], where the note is “read-out: IC50 Value”, the half-maximal inhibitory concentration (IC50) was 10 to 100 nM.
Turning to `Cn1nc2cc(N3CCOc4cc(C(=O)N5CCCC(C(F)(F)F)C5)cnc43)ccn2c1=O` (stereo not drawn) [Example 8-109], under “read-out: IC50 Value”, the 50% inhibitory concentration (IC50) was less than 10 nM.
In the case of `Cn1nc2cc(N3CCOc4cc(C(=O)N5CCCC(C)(C)C5)cnc43)ccn2c1=O` [Example 8-110], the IC50 (read-out: IC50 Value) is less than 10 nM.
For the molecule `C#CC1CCN(C(=O)c2cnc3c(c2)OCCN3c2ccn3c(=O)n(C)nc3c2)CC1` [Example 8-111], the half-maximal inhibitory concentration (IC50) (read-out: IC50 Value) was less than 10 nM.
As for `Cn1nc2cc(N3CCOc4cc(C(=O)N5CCC(=O)CC5)cnc43)ccn2c1=O` [Example 8-112], the half-inhibitory concentration (IC50) (IC50 Value) is 10 to 100 nM.
In the case of `Cn1nc2cc(N3CCOc4cc(C(=O)N5CCC(Cl)CC5)cnc43)ccn2c1=O` [Example 8-113], for the setting “read-out: IC50 Value”, the IC50 was less than 10 nM.
Still for that read-out and setting: as for `Cn1nc2cc(N3CCOc4cc(C(=O)N5CCC(F)CC5)cnc43)ccn2c1=O` [Example 8-114], the figure is less than 10 nM; as for `Cn1nc2cc(N3CCOc4cc(C(=O)N5CCC[C@@H](C(F)(F)F)C5)cnc43)ccn2c1=O` [Example 8-115], less than 10 nM.
Same read-out and setting: as for `Cn1nc2cc(N3CCOc4cc(C(=O)N5CCC[C@H](C(F)(F)F)C5)cnc43)ccn2c1=O` [Example 8-116], the figure is less than 10 nM; as for `COCn1nc2cc(N3CCCc4cc(C(=O)N5CCC(F)(F)C(C)C5)cnc43)ccn2c1=O` (stereo not drawn) [Example 8-117], less than 10 nM.
Turning to `COCn1nc2cc(N3CCCc4cc(C(=O)N5CCC[C@H](C(F)F)C5)cnc43)ccn2c1=O` [Example 8-118], for the setting “read-out: IC50 Value”, the half-maximal inhibitory concentration (IC50) is less than 10 nM.
On the same count and under the same terms, the value for `COCn1nc2cc(N3CCCc4cc(C(=O)N5CCC[C@@H](C(F)F)C5)cnc43)ccn2c1=O` [Example 8-119] was less than 10 nM.
With `COCn1nc2cc(N3CCCc4cc(C(=O)N5CC[C@H](C)C5)cnc43)ccn2c1=O` [Example 8-120], under “read-out: IC50 Value”, the half-inhibitory concentration (IC50) was less than 10 nM.
